# Columns and labels:
# Format in all cases: functional
# [1] = test system: Staphylococcus aureus; experiment: Antimicrobial activity against Staphylococcus aureus ATCC 29213 assessed as zone of inhibition after 24 hrs by agar well-diffusion method
# [2] = test system: Pseudomonas aeruginosa; experiment: Antimicrobial activity against Pseudomonas aeruginosa ATCC 27853 assessed as zone of inhibition after 24 hrs by agar well-diffusion method
# [3] = test system: Escherichia coli; experiment: Antimicrobial activity against Escherichia coli ATCC 25922 assessed as zone of inhibition after 24 hrs by agar well-diffusion method
Compound,inhibition zone (IZ) [1],inhibition zone (IZ) [2],inhibition zone (IZ) [3]
COc1ccc(C2C3CCc4ccccc4C3=NN2c2nc(-c3ccccc3)cs2)cc1 (configuration not stated),8 mm,9 mm,–
COc1ccc(C2CC(c3ccc(C)cc3)=NN2c2nc(-c3ccccc3)cs2)cc1 (configuration not stated),–,19 mm,7 mm
GENTAMICIN,23 mm,21 mm,22 mm
COc1ccc(C2CC(c3ccccc3)=NN2c2nc(-c3ccccc3)cs2)cc1 (configuration not stated),6 mm,7 mm,–
COc1ccc(C2=NN(c3nc(-c4ccccc4)cs3)C(c3ccc(OC)cc3)C2)cc1 (configuration not stated),–,18 mm,8 mm
c1ccc(-c2csc(N3N=C4c5ccccc5CCC4C3c3cccs3)n2)cc1 (configuration not stated),–,16 mm,8 mm
c1ccc(C2=NN(c3nc(-c4ccccc4)cs3)C(c3cccs3)C2)cc1 (configuration not stated),9 mm,19 mm,–
COc1ccc(C2=NN(c3nc(-c4ccccc4)cs3)C(c3ccc(C)cc3)C2)cc1 (configuration not stated),7 mm,17 mm,–
Cc1ccc(C2=NN(c3nc(-c4ccccc4)cs3)C(c3ccc(C)cc3)C2)cc1 (configuration not stated),7 mm,16 mm,7 mm
Clc1ccc(C2C3CCc4ccccc4C3=NN2c2nc(-c3ccccc3)cs2)cc1 (configuration not stated),–,9 mm,7 mm
